Data set [1] relates to EDA-containing fibronectin. The experiment in a line: Endogenous (cellular) fibronectin assembly assay, human proximal tubular epithelial cells (HK-2). The class given is cell-based. The conditions noted are these: doses up to 500 nM; for IC50: endogenous EDA+-fibronectin, human proximal tubular epithelial cells, read-out: IC50 of fibronectin assembly inhibition. From the text: (§1) Endogenous (cellular) fibronectin assembly assay: This immunochemical assay measures the ECM incorporation of EDA-containing fibronectin synthesized by human fibroblasts and human proximal tubular epithelial cells. Human proximal epithelial cells, HK-2 cells, were obtained from ATCC (CRL-2190). The EDA+ fibronectin is a splice variant synthesized and secreted by a variety of cells mostly during embryonic development and during wound healing, ECM remodeling, or fibrotic conditions in the adult. Fibroblasts (AH1F) were cultured in DMEM (Gibco) containing 10% fetal calf serum, and human proximal tubular epithelial cells (HK-2) were cultured in keratinocyte serum free medium (KSFM, containing pituitary extract and rEGF, Invitrogen/Thermo Fisher). Both media also contained 2.5 mM glutamine, 100 IU/ml penicillin, and 100 μg/ml streptomycin. Confluent cells were trypsinized and resuspended in DMEM containing 2% FCS in DMEM for AH1F cells or KSFM for HK-2 cells, at densities that allow delivery of 60,000 AH1F or 20,000 HK-2 cells in 90 μl per well in black-walled, flat transparent bottom 96-well plates. Cells were incubated for 2 h at 37° C. with 5% CO2 and checked microscopically for spreading and confluence. Peptides were then added in 10 μl volumes at 10-fold the desired final concentration. Cell monolayers in microplates were incubated overnight in a humidified 37° C., 5% CO2 chamber. After approximately 22 h, 10 μl of AlamarBlue® was added to the cell monolayers and incubated at 37° C. for 2 h to assess cell viability. Fluorescence of AlamarBlue® was read at 555 nm excitation and 585 nm emission. Microplates were washed twice with HBSS containing Ca^2+, Mg^2+ and 50 μl/well of 4% paraformaldehyde (PFA) in PBS was then added for 10 min at room temperature. […] Similar to the measurement of exogenous A488-FN fluorescence, A488-EDA fluorescence was read using microplate reader equipped with bottom-readout capabilities at 485 nm excitation and 525 nm emission. Fluorescence of wells to which A488-IgG was added, i.e., background green fluorescence from non-specific IgG binding and from the cell monolayer was subtracted from fluorescence values of wells incubated with A488-EDA. Data is presented for fibronectin fibrillogenesis or cell viability as percent of fluorescence values (AlexaFluor® 488 fluorescence or AlamarBlue®, respectively) for wells with no peptides.
(§2) To determine whether PEG-FUD retained its ability to inhibit fibronectin fibrillogenesis, PEG-FUD and FUD were compared in cell-based fibronectin matrix assembly assays. The ability of PEG-FUD to inhibit the incorporation of exogenous fibronectin derived from plasma and also of fibronectin endogenously produced by the cultured cells was measured, since fibrosis is likely to contain fibronectin from both sources. […]

In data set [2] the test system is EDA-containing fibronectin. The experiment in a line: Endogenous (cellular) fibronectin assembly assay, human fibroblasts (AH1F). The class given is cell-based. The conditions noted are these: doses up to 500 nM; for IC50: endogenous EDA+-fibronectin, human fibroblasts, read-out: IC50 of fibronectin assembly inhibition.
Source text: as §1, §2

Data set [3] deals with human proximal tubular epithelial cells (HK-2). Description: Cell viability of proximal tubular epithelial cells (AlamarBlue). Type of data set: cell-based. Conditions: doses up to 500 nM. The source says: Endogenous (cellular) fibronectin assembly assay: This immunochemical assay measures the ECM incorporation of EDA-containing fibronectin synthesized by human fibroblasts and human proximal tubular epithelial cells. Human proximal epithelial cells, HK-2 cells, were obtained from ATCC (CRL-2190). The EDA+ fibronectin is a splice variant synthesized and secreted by a variety of cells mostly during embryonic development and during wound healing, ECM remodeling, or fibrotic conditions in the adult. […] Fluorescence of AlamarBlue® was read at 555 nm excitation and 585 nm emission. […] Similar to the measurement of exogenous A488-FN fluorescence, A488-EDA fluorescence was read using microplate reader equipped with bottom-readout capabilities at 485 nm excitation and 525 nm emission. Fluorescence of wells to which A488-IgG was added, i.e., background green fluorescence from non-specific IgG binding and from the cell monolayer was subtracted from fluorescence values of wells incubated with A488-EDA. Data is presented for fibronectin fibrillogenesis or cell viability as percent of fluorescence values (AlexaFluor® 488 fluorescence or AlamarBlue®, respectively) for wells with no peptides.
On the technique in general: Resazurin is reduced to fluorescent resorufin, in cell work by metabolically active cells.

Data set [4] in a line: Bleomycin model: PEG-FUD organ accumulation (Western blot, ex vivo fluorescence imaging). The class given is in vivo, mouse. Conditions: day 3-13 s.c. injection, bleomycin-injured vs uninjured (NS) lungs. As for the experimental part:
Separately, on day three post-bleomycin treatment, another animal set was treated with a single SC dose of PEG-FUD mixed with 25% Cy5-fluorophore labeled PEG-FUD or fully unlabeled PEG-FUD control (12.5 mg/kg). These mice were sacrificed seven days post-bleomycin treatment and their lungs, kidneys and livers imaged ex vivo using the fluorescence protocol on In Vivo Imaging System.
Western blot: Homogenized lung tissue was lysed for protein using 5% SDS/5 M Urea lysing buffer. The lysates were sonicated and boiled for 5 min prior to being subject to electrophoresis on polyacrylamide gels at 400 V for 2 hours and transferred at 100 V for 2.5 hours. Membranes were blotted with in-house made anti-FUD antibody produced in rabbit (0.7 μg/ml suspended in 2% bovine serum albumin) or β-actin housekeeping antibody produced in mouse (Sigma-Aldrich, 2 μg/ml suspended in 2% bovine serum albumin) and corresponding HRP-conjugated secondary antibody (1:3000). Blots were developed using an enhanced chemiluminescence (ECL) reaction (GE) and imaged on GE LAS4000 chemiluminescence imager to obtain images below the saturated threshold. […]
In Vivo Imaging System: Lungs, livers and kidneys of mice treated with bleomycin or NS and a single dose of SC Cy5-PEG-FUD or unlabeled PEG-FUD were imaged using the fluorescence protocol in the In Vivo Imaging System. […]

Where no end group is shown, it is not given here.

Chain of EDA-containing fibronectin (P02751 32-608 limits assumed): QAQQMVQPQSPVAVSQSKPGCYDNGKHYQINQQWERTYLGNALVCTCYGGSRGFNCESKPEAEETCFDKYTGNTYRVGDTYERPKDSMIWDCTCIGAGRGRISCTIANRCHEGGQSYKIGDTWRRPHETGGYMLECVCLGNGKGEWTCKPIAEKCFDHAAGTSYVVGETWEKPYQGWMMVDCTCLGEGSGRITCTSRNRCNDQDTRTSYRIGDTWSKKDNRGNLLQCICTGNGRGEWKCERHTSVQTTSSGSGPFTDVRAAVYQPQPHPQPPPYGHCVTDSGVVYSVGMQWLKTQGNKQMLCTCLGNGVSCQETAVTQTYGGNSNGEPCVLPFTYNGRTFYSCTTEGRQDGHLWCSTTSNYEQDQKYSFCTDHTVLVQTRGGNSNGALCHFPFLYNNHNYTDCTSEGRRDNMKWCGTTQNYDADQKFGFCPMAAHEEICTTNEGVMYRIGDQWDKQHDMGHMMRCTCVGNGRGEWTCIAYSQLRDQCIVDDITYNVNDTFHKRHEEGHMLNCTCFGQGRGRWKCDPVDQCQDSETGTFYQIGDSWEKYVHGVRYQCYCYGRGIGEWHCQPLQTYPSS

On to “FUD: 49 amino acid FUD peptide, SEQ ID NO: 1, recombinantly expressed, His-tag removed; inhibitor of fibronectin fibrillogenesis (KDQSPLAGESGETEYITEVYGNQQNPVDIDKKLPNETGFSGNMVETEDT; human) [reference compound]”, for which, in data set [1], the “inhibition of fibronectin assembly by proximal tubular epithelial cells” value was found to be 50% and the half-inhibitory concentration (IC50) was roughly 30 nM. Moreover, in data set [2], the “inhibition of assembly of cellular fibronectin by fibroblasts” value was found to be 70% and the IC50 was roughly 30 nM. Further, in data set [3], the “human proximal tubular epithelial cell viability” value is “approximately 100%”.

For the substance “PEG-FUD: PEGylated FUD prepared as in Example 1, PEG size not stated; approximately 27 kDa by mass spectrometry, likely the 20 kDa conjugate (KDQSPLAGESGETEYITEVYGNQQNPVDIDKKLPNETGFSGNMVETEDT; not fully specified (N-terminus); also: PEG size not given here)”, the “PEG-FUD accumulation in lungs (Western blot)” value in data set [4] is listed as “striking increase in PEG-FUD accumulation in bleomycin-injured lungs”. Moreover, in data set [1], the “inhibition of fibronectin assembly by proximal tubular epithelial cells” value is given as 50% and the half-maximal inhibitory concentration (IC50) was roughly 30 nM. Further, in data set [2], the “inhibition of assembly of cellular fibronectin by fibroblasts” value is 70% and the 50% inhibitory concentration (IC50) was roughly 30 nM. Further, the “human proximal tubular epithelial cell viability” value in data set [3] is listed as “approximately 100%”.

In general, IC50 refers to the midpoint of a concentration-inhibition curve.
